From patent US7939519B2, “Immunosuppresant compounds and compositions” (Novartis AG, priority 2003, dated 2011)

Tests used:
[1] = target: T1, human EDG-1 (S1P1) (Homo sapiens, UniProt P21453); assay: GTP [γ-35S] binding assay, membranes from CHO cells expressing human EDG-1; assay type: biochemical; conditions: EDG-1 GTP [γ-35S] binding, CHO cell membranes
T1 construct: expressed in transfected cells
Protocol: A. In Vitro: GPCR Activation Assay Measuring GTP [γ-^35S] Binding to Membranes Prepared from Cho Cells Expressing Human EDG Receptors
EDG-1 (S1P1) GTP [γ-^35S] binding assay: Homogenized membranes are prepared from CHO cell clones stably expressing a human EDG-1 N-terminal c-myc tag. Cells are grown in suspension in two 850 cm^2 roller bottles for three or fours days before harvesting. The cells are centrifuged down, washed once with cold PBS, and resuspended in ≦20 ml of Buffer A (20 mM HEPES, pH 7.4, 10 mM EDTA, EDTA-free complete protease inhibitor cocktail [1 tablet/25 ml]). The cell suspension is homogenized on ice, using a Polytron homogenizer at 30000 rpm at three intervals of 15 seconds each. The homogenate is first centrifuged at 2000 rpm on a tabletop low speed centrifuge for 10 minutes. The supernatant, after passing through a cell strainer, is then re-centrifuged at 50,000×g for 25 minutes at 4° C. The pellet is resuspended into buffer B (15% glycerol, 20 mM HEPES, pH 7.4, 0.1 mM EDTA, EDTA-free complete protease inhibitor cocktail [1 tablet/10 ml]). Protein concentration of the prep is determined using the BCA Protein Assay kit (Pierce) using BSA as standard. The membranes are aliquoted and kept frozen at −80° C.
Solutions of test compounds ranging from 10 mM to 0.01 nM are prepared in DMSO. S1P is diluted in 4% BSA solution as positive controls. […]

[2] = tested on: blood lymphocytes; assay: Measurement of circulating lymphocytes (blood lymphocyte depletion) in mice; assay type: in vivo, Mice (C57bl/6); conditions: Mus musculus, oral gavage, blood collected 6 and 24 hours after administration, read-out: ED50, effective dose required displaying 50% of blood lymphocyte depletion
Protocol: C. In Vivo: Screening Assays for Measurement of Blood Lymphocyte Depletion and Assessment of Heart Effect
Measurement of circulating lymphocytes: Compounds are dissolved in DMSO and diluted to obtain a final concentration of 4% DMSO (v/v, final concentration) and then further diluted in a constant volume of Tween80 25%/H2O, v/v. Tween80 25%/H2O (200 μl), 4% DMSO, and FTY720 (10 μg) are included as negative and positive controls, respectively. Mice (C57bl/6 male, 6-10 week-old) are administered 250-300 μL of compound solution orally by gavages under short isoflurane anesthesia.
Blood is collected from the retro-orbital sinus 6 and 24 hours after drug administration under short isoflurane anesthesia. Whole blood samples are subjected to hematology analysis. Peripheral lymphocyte counts are determined using an automated analyzer. Subpopulations of peripheral blood lymphocytes are stained by fluorochrome-conjugated specific antibodies and analyzed using a fluorescent activating cell sorter (Facscalibur). Two mice are used to assess the lymphocyte depletion activity of each compound screened. The result is an ED50, which is defined as the effective dose required displaying 50% of blood lymphocyte depletion.

T1 sequence (P21453 whole entry): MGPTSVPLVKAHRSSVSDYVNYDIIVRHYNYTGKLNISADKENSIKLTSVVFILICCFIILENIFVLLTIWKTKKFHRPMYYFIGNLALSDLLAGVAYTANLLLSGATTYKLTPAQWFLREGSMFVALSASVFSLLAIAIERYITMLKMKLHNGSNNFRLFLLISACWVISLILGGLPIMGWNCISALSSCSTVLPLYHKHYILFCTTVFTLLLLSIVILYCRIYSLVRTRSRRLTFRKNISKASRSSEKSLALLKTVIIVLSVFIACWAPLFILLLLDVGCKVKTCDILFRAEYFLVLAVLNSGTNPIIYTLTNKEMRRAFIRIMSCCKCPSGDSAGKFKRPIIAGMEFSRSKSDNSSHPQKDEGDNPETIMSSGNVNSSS

| EC50 [1] [nM] | SMILES | ED50 [2] [mg/kg] |
| --- | --- | --- |
| 0.8 | CCc1cc(/C(C)=N/OCc2ccc(C3CCCCC3)c(C(F)(F)F)c2)ccc1CNCCC(=O)O [Example 2, 3-{4-[1-(4-Cyclohexyl-3-trifluoromethyl-benzyloxyimino)-ethyl]-2-ethyl-benzylamino}-propionic acid] | 0.07 |
| 0.2 | CCc1cc(/C(C)=N/OCc2ccc(C3CCCCC3)c(C(F)(F)F)c2)ccc1CN1CC(C(=O)O)C1 [Example 3, 1-{4-[1-(4-Cyclohexyl-3-trifluoromethyl-benzyloxyimino)-ethyl]-2-ethyl-benzyl}-azetidine-3-carboxylic acid] | 0.1 |
